Legend:
Type in all cases: functional
Chlorophyta = test: Inhibition of photosynthesis in green alga at 100 ug/mL
Escherichia coli = test: Antimicrobial activity against Escherichia coli measured per disk
Staphylococcus aureus = test: Antimicrobial activity against Staphylococcus aureus measured per disk

- MIC (Escherichia coli): 10 µg
- MIC (Staphylococcus aureus): 12.5 µg
Structure (SMILES): CCCC1CCCCCCCCCCCC#Cc2cc(O)c1c(O)c2 (stereo not drawn) [NOSTOCYCLYNE A]
- inhibition at 100 µg/mL (Chlorophyta): 5%

From ChEMBL document CHEMBL1155625, “Nostocyclyne A, a novel antimicrobial cyclophane from the cyanobacterium Nostoc sp” (2000)
